Measured values published in patent publication US20260069584A1, “METHODS OF TREATING CHRONIC MYELOID LEUKEMIA USING THE TYROSINE KINASE INHIBITOR VODOBATINIB” (Sun Pharma Advanced Research Company Ltd., priority 2022, published 2026).

What was measured:
[1] = test system: Ph+ CML (CP CML, AP CML and BP CML) and Ph+ ALL; assay: Phase 1/2 dose-escalation and expansion study (Part B): disease response, all subjects; assay type: in vivo
Source text: This was a Phase I/2, open-label, single-agent, multicenter, multi-dose, dose-escalation study in subjects with Philadelphia chromosome-positive Ph+ CML (CP CML, AP CML and BP CML) and Ph+ ALL. The primary objectives of this study were to determine the maximum tolerated dose (MTD; or recommended Phase 2 dose [RP2D]) of the compound of Formula I when administered orally and to evaluate its safety.
For patient selection, key inclusion criteria included men or women aged ≥18 years with Eastern Cooperative Oncology Group performance status 0, 1, or 2 with Ph+ CML (CP CML, AP CML, or BP CML) who are resistant and/or intolerant to ≥3 prior TKIs, having adequate organ and immune system function as indicated by Table 09, obtained ≤2 weeks prior to the administration of the compound of Formula I. Subjects with presence of T3151 mutations were not included in the study.
In this study, the dose-escalation cohort started with an accelerated titration study design (ATD) and shifted to a 3±3 design when subjects in the preceding ATD cohort experienced either grade 2 or higher adverse events (AEs) or dose-limiting toxicity (DLT) during Cycle 1 that was not clearly and incontrovertibly related to the underlying disease or concomitant medications. The DLT period consisted of 28 days (Cycle 1). Subjects experiencing DLTs were managed with dose delays and/or discontinuation and continued in the study until disease progression. Decisions to advance to a succeeding dose level occurred after the evaluation of safety and tolerability data for a given dose level.
Accordingly, the eligible subjects were treated in 4-week cycles of once daily self-administration of the compound of Formula I. The administration was after an overnight fast, or after maintaining approximately 2 hours of fasting before and after the dosing in all cycles.
For the cohorts, where the 3±3 design applies, 3 subjects were enrolled initially. If 2 of these subjects experienced a Grade 2 or more toxicity (that was not clearly and incontrovertibly related to the underlying disease or concomitant medications), subsequent cohorts were escalated according to smaller increments. Further, if there were no DLTs in the first 3 subjects, dose escalation to the next higher dose level was allowed to proceed. If 1 of the 3 subjects experienced a DLT, that dose level was expanded to 6 subjects (3 additional subjects were enrolled). If 2 subjects at a given dose level experienced a DLT, the MTD was considered to have been exceeded. The next lower dose level was expanded to 6 subjects, or if 6 subjects had already been enrolled and no more than 1 of the 6 subjects experienced a DLT, then this lower dose level was considered the MTD. Additional subjects were enrolled in dose escalation cohorts for further assessment of safety and efficacy of the compound of Formula 1 at doses that were tolerated (i.e., doses that have <2 DLTs in 6 enrolled subjects or <1 DLT in 3 enrolled subjects). Thus 204 mg was arrived at as MTD. A subject experiencing a DLT was allowed to continue therapy with a reduced dose. Subjects who experienced a DLT and recovered were treated at the next lower dose level until disease progression or other events requiring further dose reduction existed. For cohorts at Dose Level 2 or higher, a further dose reduction (i.e., up to 2 levels lower than their originally assigned dose) was implemented in the case of a further DLT or other non-DLT events requiring a dose reduction, if and when the event leading to dose reduction returned to Grade 1 or lower in severity. The reduced dose was re-escalated to the original or higher dose (i.e., the dose for which safety had been established in the dose escalation cohort) considering subject safety and response to the compound of Formula I. The subject was discontinued from treatment using the compound of Formula I, if dose reduction below 48 mg was required. […]

[2] = SAD study in healthy male volunteers: safety and tolerability; assay type: in vivo, human; conditions: single-dose 6 mg, 12 mg and 24 mg
Description: Initially in the single ascending dose (SAD) study the safety, tolerability, and pharmacokinetics of the compound of Formula I at 6 mg, 12 mg, and 24 mg doses in healthy human male volunteers were evaluated. In this study, the healthy male volunteers within the mean age group of 28.7-35 years were orally administered an investigational medicinal product (IMP) or a placebo after an overnight fast (of at least 8 hours). The IMP used in this study was a hard gelatin capsule comprising the compound of Formula I of varying sizes containing either 6 mg or 24 mg of the compound of Formula I and the excipients. For the 12 mg dose, two capsules of 6 mg were used. The placebo formulation containing the excipients matched the compound of Formula I capsules in shape, size, and color. […] The median time of maximum concentration (Tmax: 2.5-3 hours, across dose range) was independent of the dose level. Dose-related increases in exposure (AUC and Cmax) were observed. […] The inter-subject variability, for the PK parameters, was generally higher in the 12 mg dose group when compared with that in the 6 mg and 24 mg dose groups (Table 07, and FIG. 1)
There were no clinically significant changes in laboratory parameters, and no clinically significant changes in vital signs or electrocardiogram were recorded for any subject.

Cc1ccc(C(=O)NNC(=O)c2c(C)cccc2Cl)cc1C#Cc1cnc2ccccc2c1 [compound of Formula I, N′-(2-chloro-6-methylbenzoyl)-4-methyl-3-[2-(3-quinolyl)ethynyl]-benzohydrazide]
major molecular response ([1]; 18 of the 41 enrolled subjects): 43.9% | Major cytogenetic response (MCyR) as best response ([1]; 19 subjects enrolled at 174 mg): 10 subjects | complete cytogenetic response (CCyR) ([1]; 19 subjects enrolled at 174 mg): 9 subjects | major hematological response (MaHR) as best response ([1]; 19 subjects enrolled at 174 mg): all subjects | major molecular response as best response ([1]; 19 subjects enrolled at 174 mg): 4 subjects | partial cytogenetic response (PCyR) ([1]; 19 subjects enrolled at 174 mg): 1 subjects | complete cytogenetic response ([1]; 23 out of 41 enrolled subjects): 56.1% | complete hematologic response ([1]; 29 out of 41 enrolled subjects, refractory, 2 or more prior TKIs): 70.7% | individual subject outcome ([1]; AP CML, 48 mg escalated, ~24 months, daily dose of 174 mg): attained MCyR | individual subject outcome ([1]; CP CML, 12 mg escalated to 174 mg): achieved and maintained CCyR at doses ≥48 mg | individual subject outcome ([1]; CP CML, 24 mg escalated to 126 mg and 174 mg): maintain CCyR and molecular response between MMR and M2 | individual subject outcome ([1]; CP CML, 126 mg reduced to 90 and 66 mg (thrombocytopenia), re-escalated to 126 mg and 174 mg): tolerated the re-escalated higher dose well | individual subject outcome ([1]; CP CML, 174 mg reduced to 126 mg (grade 3/4 deranged pancreatic enzymes)): complete cytogenetic response and major molecular response | individual subject outcome ([1]; CP CML, 204 mg reduced to 174 mg (memory loss)): maintains a complete cytogenetic response and major molecular response | individual subject outcome ([1]; CP CML, 204 mg reduced to 174 mg (severe thrombocytopenia)): partial cytogenetic response and improved molecular response | individual subject outcome ([1]; CP CML, 3 prior TKIs incl. Ponatinib, 48 mg escalated to 174 mg): re-attained major molecular and cytogenetic responses | individual subject outcome ([1]; CP CML, 4 prior TKIs, 48 mg escalated to 90 mg and 174 mg): maintain complete cytogenetic and major molecular responses | individual subject outcome ([1]; CP CML, 4 prior TKIs, 66 mg escalated to 90 mg): Ph+ cells decreased to minimal cytogenetic response | individual subject outcome ([1]; CP CML, 6 prior TKIs, 174 mg escalated to 204 mg): improvement in cytogenetic response to minor cytogenetic response | individual subject outcome ([1]; CP CML, F317L, 66 mg reduced to 48 mg (back pain of grade 2)): maintained CCyR and MMR at 48 mg dose for ˜2.5 years | individual subject outcome ([1]; CP CML, M351T, 174 mg escalated to 204 mg at cycle 7, cycle 22): maintaining a complete hematological response and stable disease | individual subject outcome ([1]; donor one CP CML, 2 prior TKIs, 174 mg escalated to 204 mg): maintaining a hematological response | individual subject outcome ([1]; donor two CP CML, 2 prior TKIs, 174 mg escalated to 204 mg): improvement in cytogenetic response to partial cytogenetic response and improved molecular response | highest efficacious dose ([1]; human, in vivo): 204 mg | lowest dose observed to be therapeutically efficacious ([1]; human, in vivo): 48 mg | best cytogenetic response, Ph+ ([1]; one AP CML subject, Y253F, 48 mg escalated to 204 mg, 39 cycles, PCyR): 10% | best molecular response, BCR-ABL ([1]; one AP CML subject, Y253F, at 204 mg, 36 cycles): 0.931 % IS | individual subject outcome ([1]; subject at 66 mg, F317L with ACA): CCyR in cycle 7 and MMR in cycle 4 | duration of maintained disease response at the lower dose ([1]; subject with F317L, reduced from 66 mg to 48 mg): about 2.5 years | withdrawal criteria based on QTcF prolongation or safety laboratory tests [2]: No subject reached the subject withdrawal criteria | safety and tolerability ([2]; healthy subjects): safe and well tolerated
